ChEMBL document CHEMBL1201862, “PubChem BioAssay data set” (2004)
“And” between values parts separate entries of the source, which are not always exact repeats. Equal values may be shown once. The source made the active and inactive calls.

Experiments:
[1] = biological target: T1, Neuropeptides B/W receptor type 1 (Homo sapiens, UniProt P48145); experiment: Fluorescence-based dose response cell-based high throughput screening assay to identify antagonists of the G-protein coupled receptor 7 (GPR7). [Related pubchem assays: 1952 (Screening assay (GPR7 antagonists).), 1880 (Summary AID.)]; assay type: functional
T1 sequence (P48145 whole entry): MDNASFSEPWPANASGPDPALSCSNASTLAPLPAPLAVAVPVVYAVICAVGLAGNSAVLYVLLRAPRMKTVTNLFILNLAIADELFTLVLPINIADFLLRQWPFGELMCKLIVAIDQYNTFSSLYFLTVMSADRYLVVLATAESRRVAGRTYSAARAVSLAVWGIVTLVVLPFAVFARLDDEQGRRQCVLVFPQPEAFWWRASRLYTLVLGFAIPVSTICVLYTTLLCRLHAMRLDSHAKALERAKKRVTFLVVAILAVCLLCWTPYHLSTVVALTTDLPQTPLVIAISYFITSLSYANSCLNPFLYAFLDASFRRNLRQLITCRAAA

BJ = experiment: cells; assay type: functional, cell-based; conditions: Homo sapiens
[2] = biological target: Bifunctional protein GlmU (Mycobacterium tuberculosis, UniProt P9WMN3); experiment: Inhibitors of Mycobacterial Glucosamine-1-phosphate acetyl transferase (GlmU). Secondary screen.; design: species or system Mycobacterium tuberculosis H37Rv
Albumin = Albumin (Bos taurus, UniProt P02769); experiment: Counterscreen for inhibitors of T-cell receptor (TCR)-CD3 interaction: Fluorescence-based biochemical high throughput dose response assay to identify inhibitors of T-cell receptor (TCR)-CD3 interaction using a TAMRA-labeled BSA probe.; assay type: functional
[3] = biological target: Mothers against decapentaplegic homolog 3 (Homo sapiens, UniProt P84022); experiment: SMAD3 transcription factor inhibitors, dose response (AID 715); assay type: functional
[4] = biological target: Serine/threonine-protein phosphatase (Homo sapiens, UniProt Q9BPW0); experiment: PP5 phosphatase inhibitors, dose response, biochemical, fluorescence (AID 2395)
[5] = biological target: T2, Dual specificity protein phosphatase 3 (Homo sapiens, UniProt P51452); experiment: VHR phosphatase inhibition, dose response, selectivity assay for STEP inhibitor project, biochemical (AID 602374); assay type: functional; conditions: read-out: IC50_Mean
[6] = biological target: T2, Dual specificity protein phosphatase 3; experiment: VHR1 phosphatase inhibitors, primary screen, biochemical, absorbance, uHTS (AID 1654)
[7] = biological target: T3, Tyrosine-protein phosphatase non-receptor type 12 (Homo sapiens, UniProt Q05209); experiment: SAR Selectivity Analysis of small molecule inhibitors of PEST using pCAP in a fluorescence assay. [Related pubchem assays (depositor defined):AID1779, AID1784, AID2135]; assay type: functional
T3 sequence (Q05209 whole entry): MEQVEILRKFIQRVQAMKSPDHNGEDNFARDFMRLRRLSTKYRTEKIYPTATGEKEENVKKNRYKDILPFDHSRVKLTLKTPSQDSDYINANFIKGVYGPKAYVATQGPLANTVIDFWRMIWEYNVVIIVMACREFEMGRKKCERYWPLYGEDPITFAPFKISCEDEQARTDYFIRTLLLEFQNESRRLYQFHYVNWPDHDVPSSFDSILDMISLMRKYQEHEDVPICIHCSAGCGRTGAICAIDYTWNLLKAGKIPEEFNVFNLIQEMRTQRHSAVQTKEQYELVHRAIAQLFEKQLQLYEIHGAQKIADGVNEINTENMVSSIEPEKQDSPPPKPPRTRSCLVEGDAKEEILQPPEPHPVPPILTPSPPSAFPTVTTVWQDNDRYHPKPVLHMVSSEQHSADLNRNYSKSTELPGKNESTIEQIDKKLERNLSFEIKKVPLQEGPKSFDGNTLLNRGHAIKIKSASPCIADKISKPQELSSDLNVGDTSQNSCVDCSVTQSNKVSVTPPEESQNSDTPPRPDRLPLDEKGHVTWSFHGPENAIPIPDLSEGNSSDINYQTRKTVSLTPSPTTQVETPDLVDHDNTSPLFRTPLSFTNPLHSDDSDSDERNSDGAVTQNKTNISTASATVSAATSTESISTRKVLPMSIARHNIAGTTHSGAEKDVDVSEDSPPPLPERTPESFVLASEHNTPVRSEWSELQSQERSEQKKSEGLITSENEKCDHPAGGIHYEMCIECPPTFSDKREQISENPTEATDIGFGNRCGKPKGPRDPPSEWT

Troponin, cardiac muscle = Troponin, cardiac muscle (Homo sapiens, UniProt P19429+P45379+P63316); experiment: inhibitors of cardiac thin filament calcium sensitivity, dose response, biochemical, fluorescence, cardiac regulated thin filaments, triplicate IC50 (AID 504742); assay type: protein-complex assay
[8] = biological target: T4, Tyrosine-protein phosphatase non-receptor type 22 (Homo sapiens, UniProt Q9Y2R2); experiment: PubChem AID 2140
T4 sequence (Q9Y2R2 whole entry): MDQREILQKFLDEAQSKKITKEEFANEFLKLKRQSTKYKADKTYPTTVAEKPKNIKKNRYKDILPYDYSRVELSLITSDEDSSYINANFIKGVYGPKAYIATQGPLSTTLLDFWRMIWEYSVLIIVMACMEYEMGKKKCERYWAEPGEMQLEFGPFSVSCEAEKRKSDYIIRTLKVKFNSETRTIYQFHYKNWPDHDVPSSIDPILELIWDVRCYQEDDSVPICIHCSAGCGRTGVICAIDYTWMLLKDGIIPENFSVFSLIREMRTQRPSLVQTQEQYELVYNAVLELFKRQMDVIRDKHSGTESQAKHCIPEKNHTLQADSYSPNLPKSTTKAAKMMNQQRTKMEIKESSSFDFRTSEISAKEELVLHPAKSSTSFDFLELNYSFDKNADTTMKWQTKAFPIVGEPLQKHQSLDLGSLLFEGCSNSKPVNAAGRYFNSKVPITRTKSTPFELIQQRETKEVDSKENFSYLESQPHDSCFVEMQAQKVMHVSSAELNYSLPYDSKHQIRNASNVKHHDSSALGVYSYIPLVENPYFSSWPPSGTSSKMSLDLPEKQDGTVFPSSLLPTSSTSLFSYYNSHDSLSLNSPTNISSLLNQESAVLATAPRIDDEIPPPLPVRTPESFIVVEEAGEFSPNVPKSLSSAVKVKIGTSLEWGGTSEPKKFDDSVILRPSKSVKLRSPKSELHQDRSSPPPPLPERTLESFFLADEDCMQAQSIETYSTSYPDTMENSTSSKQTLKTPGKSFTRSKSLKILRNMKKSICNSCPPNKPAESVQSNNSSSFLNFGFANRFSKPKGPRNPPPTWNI

T2 sequence (P51452 whole entry): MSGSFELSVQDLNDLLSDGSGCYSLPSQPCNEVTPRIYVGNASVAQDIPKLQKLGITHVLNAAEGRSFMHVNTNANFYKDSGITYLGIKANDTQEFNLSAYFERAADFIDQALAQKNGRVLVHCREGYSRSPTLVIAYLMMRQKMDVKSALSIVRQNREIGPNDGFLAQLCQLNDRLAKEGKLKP
Chain of Albumin (P02769 whole entry): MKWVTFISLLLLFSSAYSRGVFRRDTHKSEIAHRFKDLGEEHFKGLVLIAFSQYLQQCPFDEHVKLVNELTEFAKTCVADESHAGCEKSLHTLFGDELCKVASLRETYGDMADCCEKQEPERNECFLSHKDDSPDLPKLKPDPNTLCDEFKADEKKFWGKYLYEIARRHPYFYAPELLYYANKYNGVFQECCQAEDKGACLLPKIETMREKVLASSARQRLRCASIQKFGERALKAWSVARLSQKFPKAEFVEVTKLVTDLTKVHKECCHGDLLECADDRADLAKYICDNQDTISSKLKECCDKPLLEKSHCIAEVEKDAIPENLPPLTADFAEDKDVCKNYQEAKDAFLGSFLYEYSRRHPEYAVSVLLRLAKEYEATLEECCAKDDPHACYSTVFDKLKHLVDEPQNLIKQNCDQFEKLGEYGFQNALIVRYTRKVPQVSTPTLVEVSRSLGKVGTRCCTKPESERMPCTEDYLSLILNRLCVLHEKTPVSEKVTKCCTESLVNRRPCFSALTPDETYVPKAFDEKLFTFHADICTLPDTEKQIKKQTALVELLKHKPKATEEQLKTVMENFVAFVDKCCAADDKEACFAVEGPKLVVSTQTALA
Chain of Mothers against decapentaplegic homolog 3 (P84022 whole entry): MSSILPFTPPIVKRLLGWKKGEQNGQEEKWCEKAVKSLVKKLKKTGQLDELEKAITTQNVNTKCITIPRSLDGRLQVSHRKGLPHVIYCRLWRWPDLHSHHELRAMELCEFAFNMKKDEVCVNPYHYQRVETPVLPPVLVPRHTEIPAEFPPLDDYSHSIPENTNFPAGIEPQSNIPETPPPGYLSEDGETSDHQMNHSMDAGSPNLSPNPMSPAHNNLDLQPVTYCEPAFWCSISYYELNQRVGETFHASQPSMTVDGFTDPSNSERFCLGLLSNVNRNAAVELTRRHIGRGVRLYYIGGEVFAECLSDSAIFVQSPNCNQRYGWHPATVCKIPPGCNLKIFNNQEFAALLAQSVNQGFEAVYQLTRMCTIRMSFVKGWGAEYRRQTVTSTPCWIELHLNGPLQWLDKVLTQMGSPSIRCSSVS
Chain of Bifunctional protein GlmU (P9WMN3 whole entry): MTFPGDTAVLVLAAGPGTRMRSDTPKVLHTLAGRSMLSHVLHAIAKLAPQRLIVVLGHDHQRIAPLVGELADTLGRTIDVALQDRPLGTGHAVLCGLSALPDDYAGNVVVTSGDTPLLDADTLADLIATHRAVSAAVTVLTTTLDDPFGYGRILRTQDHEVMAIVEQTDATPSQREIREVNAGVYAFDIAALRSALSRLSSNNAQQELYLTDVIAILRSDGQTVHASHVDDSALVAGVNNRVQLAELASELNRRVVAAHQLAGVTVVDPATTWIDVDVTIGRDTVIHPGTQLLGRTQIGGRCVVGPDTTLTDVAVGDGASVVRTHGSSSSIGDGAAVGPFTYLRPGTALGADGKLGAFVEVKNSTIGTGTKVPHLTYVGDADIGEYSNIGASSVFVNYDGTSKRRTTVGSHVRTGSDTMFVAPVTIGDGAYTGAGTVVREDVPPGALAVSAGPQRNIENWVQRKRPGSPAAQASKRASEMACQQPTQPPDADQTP
Chain of Serine/threonine-protein phosphatase (Q9BPW0 whole entry): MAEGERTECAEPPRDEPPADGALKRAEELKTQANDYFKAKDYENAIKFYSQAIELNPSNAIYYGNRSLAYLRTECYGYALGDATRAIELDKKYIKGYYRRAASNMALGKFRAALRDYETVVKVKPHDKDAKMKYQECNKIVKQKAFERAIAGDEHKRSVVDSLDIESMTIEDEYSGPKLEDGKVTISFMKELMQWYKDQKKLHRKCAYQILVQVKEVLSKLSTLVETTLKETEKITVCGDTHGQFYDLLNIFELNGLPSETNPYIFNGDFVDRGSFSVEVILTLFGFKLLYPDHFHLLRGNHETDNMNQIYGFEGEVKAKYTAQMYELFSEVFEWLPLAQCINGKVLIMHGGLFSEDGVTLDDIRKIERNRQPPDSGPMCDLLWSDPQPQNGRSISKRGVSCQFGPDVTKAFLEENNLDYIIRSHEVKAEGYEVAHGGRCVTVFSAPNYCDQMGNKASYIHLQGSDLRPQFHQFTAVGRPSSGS

CCN1/C(=C/c2ccc3cc(C)ccc3[n+]2CC)Sc2cc(C)c(C)cc21
IC50 [1]: 9.2 µM (active) | EC50 (BJ): 2.34 µM (active)

Nc1ccc2nc3c(O)nc(S)nc3nc2c1
IC50 [2]: 14 µM (active) | IC50 (Albumin): 25.6 µM (inactive)

O=C1CCCC2=C1C1(O)C(=O)c3ccccc3C1(O)O2 (stereo unspecified)
IC50 [3]: 2.73 µM (active) | IC50 [4]: > 0.828 µM (active)

CSc1ccc(C=NNc2ccc(S(=O)(=O)Nc3ccccc3C(=O)O)cc2[N+](=O)[O-])cc1
IC50 [5]: 1.27 µM (active)

O=C(O)COc1ccc(/C=N/NC(=O)c2ccc(-c3csc(Nc4ccc(Cl)cc4)n3)cc2)cc1
IC50 [6]: 2.52 µM (active) | IC50 [7]: 334 nM (active) and 325 nM (active) | IC50 (Troponin, cardiac muscle): > 71.5 µM (inactive) | IC50 [8]: 6.07 µM (active)
